Experimental data: ChEMBL document CHEMBL5236641, “Persistent challenges in the development of an mGlu7 PAM in vivo tool compound: The discovery of VU6046980” (Bioorg Med Chem Lett, 2023)
One block for each compound: values may come before it. Active and inactive are the calls of the source. The calls are words filed in the database; no cut-off is given here.

How the values were obtained:
[1] = target: T1, Metabotropic glutamate receptor 8 (Homo sapiens, UniProt O00222); test: Positive allosteric modulation of human mGluR8
T1 sequence (O00222 whole entry): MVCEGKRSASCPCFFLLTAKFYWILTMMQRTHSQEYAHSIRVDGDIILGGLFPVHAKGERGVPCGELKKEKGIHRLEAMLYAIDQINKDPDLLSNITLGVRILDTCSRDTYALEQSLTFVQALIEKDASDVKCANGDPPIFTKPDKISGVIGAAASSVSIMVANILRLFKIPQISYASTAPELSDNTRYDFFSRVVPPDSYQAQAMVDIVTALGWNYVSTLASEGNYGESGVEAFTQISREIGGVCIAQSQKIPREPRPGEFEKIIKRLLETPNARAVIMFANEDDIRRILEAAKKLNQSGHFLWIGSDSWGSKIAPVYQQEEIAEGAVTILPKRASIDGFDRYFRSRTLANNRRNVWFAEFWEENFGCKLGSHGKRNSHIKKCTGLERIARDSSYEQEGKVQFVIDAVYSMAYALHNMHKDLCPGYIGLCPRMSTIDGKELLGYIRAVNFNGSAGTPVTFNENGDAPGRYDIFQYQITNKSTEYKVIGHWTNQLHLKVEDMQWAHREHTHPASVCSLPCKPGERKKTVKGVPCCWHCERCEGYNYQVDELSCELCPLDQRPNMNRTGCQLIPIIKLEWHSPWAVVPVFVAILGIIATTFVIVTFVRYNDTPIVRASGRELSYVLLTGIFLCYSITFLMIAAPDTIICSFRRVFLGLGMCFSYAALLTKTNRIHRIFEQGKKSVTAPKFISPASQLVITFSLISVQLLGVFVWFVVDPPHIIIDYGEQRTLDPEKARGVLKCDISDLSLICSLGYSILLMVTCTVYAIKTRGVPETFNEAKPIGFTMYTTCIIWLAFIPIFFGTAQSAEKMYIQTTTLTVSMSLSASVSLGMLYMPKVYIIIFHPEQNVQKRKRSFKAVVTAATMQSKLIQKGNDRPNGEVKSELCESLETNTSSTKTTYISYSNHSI

[2] = target: Metabotropic glutamate receptor 4 (Homo sapiens, UniProt Q14833); test: Positive allosteric modulation of human mGluR4
Mus musculus [3] = test: Effect on locomotor response in wild type mouse assessed as decrease in distance travelled in an open field at 30 mg/kg, ip measured over 60 mins; assay type: functional, organism-based
[4] = Unbound fraction in rat plasma; assay type: ADME, cell-free
[5] = Unbound fraction in rat brain; assay type: ADME, tissue-based
[6] = target: Sigma non-opioid intracellular receptor 1 (Homo sapiens) (UniProt Q99720); test: Inhibition of human sigma-1 receptor at 10 uM relative to control
[7] = Unbound fraction in mouse brain; assay type: ADME, tissue-based
Mus musculus [8] = test: Effect on locomotor response in Grm7 knockout mouse assessed as decrease in distance travelled in an open field at 30 mg/kg, ip; assay type: functional, organism-based
[9] = Unbound fraction in mouse plasma; assay type: ADME, cell-free
[10] = target: T2, Metabotropic glutamate receptor 2 (Homo sapiens, UniProt Q14416); test: Positive allosteric modulation of human mGluR2
[11] = target: T3, Metabotropic glutamate receptor 3 (Homo sapiens, UniProt Q14832); test: Positive allosteric modulation of human mGluR3
T3 sequence (Q14832 whole entry): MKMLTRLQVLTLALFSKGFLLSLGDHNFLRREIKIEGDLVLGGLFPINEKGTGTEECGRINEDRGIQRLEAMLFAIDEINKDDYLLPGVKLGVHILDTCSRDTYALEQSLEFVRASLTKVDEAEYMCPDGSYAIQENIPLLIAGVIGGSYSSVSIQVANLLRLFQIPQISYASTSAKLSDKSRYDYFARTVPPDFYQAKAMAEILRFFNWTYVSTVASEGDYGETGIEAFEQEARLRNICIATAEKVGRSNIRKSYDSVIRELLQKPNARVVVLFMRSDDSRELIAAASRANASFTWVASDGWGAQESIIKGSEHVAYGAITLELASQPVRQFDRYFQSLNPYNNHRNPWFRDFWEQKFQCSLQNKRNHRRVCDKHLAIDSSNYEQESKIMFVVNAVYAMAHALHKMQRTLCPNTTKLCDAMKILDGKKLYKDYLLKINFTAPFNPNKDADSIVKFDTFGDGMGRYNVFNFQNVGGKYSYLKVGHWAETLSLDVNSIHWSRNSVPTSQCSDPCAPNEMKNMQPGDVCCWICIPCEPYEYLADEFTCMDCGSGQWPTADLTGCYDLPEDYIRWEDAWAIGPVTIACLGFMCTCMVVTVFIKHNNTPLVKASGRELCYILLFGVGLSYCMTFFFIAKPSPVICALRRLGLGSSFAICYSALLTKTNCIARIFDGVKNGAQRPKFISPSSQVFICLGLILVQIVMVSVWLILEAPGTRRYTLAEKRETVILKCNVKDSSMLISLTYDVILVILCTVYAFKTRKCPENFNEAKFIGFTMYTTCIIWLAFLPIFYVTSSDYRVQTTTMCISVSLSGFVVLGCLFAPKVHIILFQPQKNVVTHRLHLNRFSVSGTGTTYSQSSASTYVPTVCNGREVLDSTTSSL

Rattus norvegicus [12] = species on record: Rattus norvegicus; test: (§1) Positive allosteric modulation of rat mGluR8
[13] = target: T4, Metabotropic glutamate receptor 1 (Homo sapiens, UniProt Q13255); test: Positive allosteric modulation of human mGluR1
T4 sequence (Q13255 whole entry): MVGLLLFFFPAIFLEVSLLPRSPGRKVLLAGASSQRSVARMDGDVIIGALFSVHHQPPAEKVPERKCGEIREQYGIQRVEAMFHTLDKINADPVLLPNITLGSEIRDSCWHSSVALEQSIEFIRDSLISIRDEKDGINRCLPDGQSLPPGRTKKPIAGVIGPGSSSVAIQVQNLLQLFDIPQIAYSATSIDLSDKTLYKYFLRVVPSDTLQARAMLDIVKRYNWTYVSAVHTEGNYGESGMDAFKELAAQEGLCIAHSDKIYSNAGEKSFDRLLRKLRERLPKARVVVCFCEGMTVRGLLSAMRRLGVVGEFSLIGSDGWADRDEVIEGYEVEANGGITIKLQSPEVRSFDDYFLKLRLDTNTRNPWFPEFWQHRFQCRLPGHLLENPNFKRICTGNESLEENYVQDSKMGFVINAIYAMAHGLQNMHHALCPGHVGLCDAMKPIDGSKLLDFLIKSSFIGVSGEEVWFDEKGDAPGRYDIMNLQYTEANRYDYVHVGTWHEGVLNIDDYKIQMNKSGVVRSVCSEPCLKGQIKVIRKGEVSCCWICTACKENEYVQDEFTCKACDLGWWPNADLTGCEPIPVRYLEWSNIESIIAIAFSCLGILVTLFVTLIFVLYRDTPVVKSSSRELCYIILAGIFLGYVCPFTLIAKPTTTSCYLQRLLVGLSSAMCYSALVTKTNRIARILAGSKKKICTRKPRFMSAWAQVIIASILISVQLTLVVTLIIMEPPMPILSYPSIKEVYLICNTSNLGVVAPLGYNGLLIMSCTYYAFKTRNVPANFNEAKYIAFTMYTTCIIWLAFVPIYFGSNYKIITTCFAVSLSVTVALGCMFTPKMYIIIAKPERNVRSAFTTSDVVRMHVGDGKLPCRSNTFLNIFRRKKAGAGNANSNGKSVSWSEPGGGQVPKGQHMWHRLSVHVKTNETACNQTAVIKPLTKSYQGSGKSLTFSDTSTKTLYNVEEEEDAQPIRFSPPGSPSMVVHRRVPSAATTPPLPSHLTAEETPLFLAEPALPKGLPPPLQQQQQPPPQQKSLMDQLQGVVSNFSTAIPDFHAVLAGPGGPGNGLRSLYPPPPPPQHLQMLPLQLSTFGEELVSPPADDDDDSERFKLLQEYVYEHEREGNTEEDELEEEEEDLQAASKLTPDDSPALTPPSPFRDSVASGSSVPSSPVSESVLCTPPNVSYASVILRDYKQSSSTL

[14] = target: T5, Metabotropic glutamate receptor 5 (Homo sapiens, UniProt P41594); test: Positive allosteric modulation of human mGluR5
T5 sequence (P41594 whole entry): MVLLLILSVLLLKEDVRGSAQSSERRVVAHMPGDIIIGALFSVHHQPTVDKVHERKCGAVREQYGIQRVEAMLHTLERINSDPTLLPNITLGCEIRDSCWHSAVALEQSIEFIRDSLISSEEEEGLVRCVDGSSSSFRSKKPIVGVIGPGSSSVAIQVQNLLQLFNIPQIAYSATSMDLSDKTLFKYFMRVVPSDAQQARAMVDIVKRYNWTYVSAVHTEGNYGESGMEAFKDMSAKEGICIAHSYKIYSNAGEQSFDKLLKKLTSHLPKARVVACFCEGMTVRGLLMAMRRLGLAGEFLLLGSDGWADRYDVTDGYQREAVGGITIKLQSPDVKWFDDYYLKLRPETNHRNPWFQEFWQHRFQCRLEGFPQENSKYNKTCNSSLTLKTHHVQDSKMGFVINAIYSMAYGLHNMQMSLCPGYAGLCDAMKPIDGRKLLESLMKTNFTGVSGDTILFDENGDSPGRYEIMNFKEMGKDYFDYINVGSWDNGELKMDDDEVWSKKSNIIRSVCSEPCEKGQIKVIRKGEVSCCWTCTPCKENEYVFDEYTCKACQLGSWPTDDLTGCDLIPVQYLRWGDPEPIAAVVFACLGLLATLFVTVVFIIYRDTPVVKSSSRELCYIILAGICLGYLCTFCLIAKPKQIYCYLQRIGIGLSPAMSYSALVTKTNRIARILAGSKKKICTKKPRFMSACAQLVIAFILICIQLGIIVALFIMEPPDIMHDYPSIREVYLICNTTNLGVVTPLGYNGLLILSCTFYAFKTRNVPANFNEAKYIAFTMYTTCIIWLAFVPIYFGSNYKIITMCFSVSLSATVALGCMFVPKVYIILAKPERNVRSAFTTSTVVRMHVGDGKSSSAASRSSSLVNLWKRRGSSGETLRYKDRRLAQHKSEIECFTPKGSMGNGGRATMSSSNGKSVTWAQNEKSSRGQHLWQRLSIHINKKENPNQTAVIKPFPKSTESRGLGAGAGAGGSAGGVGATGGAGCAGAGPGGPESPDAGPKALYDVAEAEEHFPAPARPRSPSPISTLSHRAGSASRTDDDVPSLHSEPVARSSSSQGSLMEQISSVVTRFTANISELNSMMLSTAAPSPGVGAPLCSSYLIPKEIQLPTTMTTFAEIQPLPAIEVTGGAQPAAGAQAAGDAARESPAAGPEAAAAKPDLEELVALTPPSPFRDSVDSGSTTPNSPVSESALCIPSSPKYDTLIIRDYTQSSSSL

Mus musculus [15] = test: Anxiolytic activity in anxiety induced wild type mouse model assessed as reduction in marbles burying at 30 mg/kg; assay type: functional, organism-based
[16] = target: Metabotropic glutamate receptor 7 (Rattus norvegicus, UniProt P35400); test: Positive allosteric modulation of rat mGluR7
Chain of Metabotropic glutamate receptor 7 (P35400 whole entry): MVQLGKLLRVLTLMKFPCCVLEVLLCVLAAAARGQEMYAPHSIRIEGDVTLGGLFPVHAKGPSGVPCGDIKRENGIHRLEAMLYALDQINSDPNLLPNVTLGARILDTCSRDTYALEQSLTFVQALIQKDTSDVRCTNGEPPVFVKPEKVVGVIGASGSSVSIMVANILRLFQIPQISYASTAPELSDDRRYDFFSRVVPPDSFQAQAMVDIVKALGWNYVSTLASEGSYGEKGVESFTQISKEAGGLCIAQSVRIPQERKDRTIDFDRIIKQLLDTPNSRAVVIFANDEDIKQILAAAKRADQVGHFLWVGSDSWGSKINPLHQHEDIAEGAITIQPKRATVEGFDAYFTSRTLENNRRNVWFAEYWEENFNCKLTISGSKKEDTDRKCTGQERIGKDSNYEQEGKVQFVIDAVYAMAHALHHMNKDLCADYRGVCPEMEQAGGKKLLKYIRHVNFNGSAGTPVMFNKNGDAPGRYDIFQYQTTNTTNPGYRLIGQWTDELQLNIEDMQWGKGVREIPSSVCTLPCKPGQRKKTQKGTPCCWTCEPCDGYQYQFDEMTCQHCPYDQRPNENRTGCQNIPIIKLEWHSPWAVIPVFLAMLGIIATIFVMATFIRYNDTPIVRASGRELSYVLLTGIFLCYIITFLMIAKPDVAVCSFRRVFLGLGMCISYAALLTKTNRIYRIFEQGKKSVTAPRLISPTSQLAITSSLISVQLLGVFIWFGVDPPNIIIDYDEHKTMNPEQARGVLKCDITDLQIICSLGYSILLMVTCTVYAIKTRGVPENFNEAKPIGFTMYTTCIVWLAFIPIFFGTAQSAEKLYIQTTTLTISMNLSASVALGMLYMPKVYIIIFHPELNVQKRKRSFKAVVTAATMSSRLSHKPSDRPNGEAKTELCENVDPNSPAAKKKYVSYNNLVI

[17] = as §1
[18] = target: T1, Metabotropic glutamate receptor 8; test: Positive allosteric modulation of mGluR8 (unknown origin)
Rattus norvegicus [19] = species on record: Rattus norvegicus; test: Positive allosteric modulation of rat mGluR8 in presence of L-AP4 Max relative to control; details: filed as positive allosteric modulator
[20] = Unbound brain-to-plasma concentration ratio in rat; assay type: ADME
[21] = target: T3, Metabotropic glutamate receptor 3; test: Positive allosteric modulation of mGluR3 (unknown origin)
[22] = target: T2, Metabotropic glutamate receptor 2; test: Positive allosteric modulation of mGluR2 (unknown origin)
[23] = target: T5, Metabotropic glutamate receptor 5; test: Positive allosteric modulation of mGluR5 (unknown origin)
[24] = target: T4, Metabotropic glutamate receptor 1; test: Positive allosteric modulation of mGluR1 (unknown origin)

SMILES: COc1cc(F)cc2c(N3CCN4c5c(F)cccc5OC[C@@H]4C3)c(C#N)nnc12
- EC50 [1]: > 30 µM
- EC50 [2]: > 30 µM
- Activity (Mus musculus [3]): inactive
- fraction unbound [4]: 0.3
- fraction unbound [5]: 0.01
- inhibition [6]: 95%
- fraction unbound [7]: 0.08
- Activity (Mus musculus [8]): inactive
- Fu [9]: 0.024
- EC50 [10]: > 30 µM
- EC50 [11]: > 30 µM
- Activity (Rattus norvegicus [12]): inactive
- EC50 [13]: > 30 µM
- EC50 [14]: > 30 µM
- Activity (Mus musculus [15]): inactive

SMILES: COc1cc(F)cc2c(N3CCN4c5c(F)cccc5OCC4C3)c(C#N)nnc12 (stereo not given)
- Activity (Rattus norvegicus [19]): 48%
- EC50 [17]: 0.12 µM

SMILES: COc1cc(F)cc2c(N3CCN4c5ccccc5OC[C@H]4C3)c(C#N)nnc12
- EC50 [16]: 0.043 µM
- Activity (Rattus norvegicus [19]): 68%
- EC50 [17]: 0.19 µM
- pEC50 [17]: 6.72

SMILES: COc1cc(F)cc2c(N3CCN(c4ccccc4F)CC3)c(C#N)nnc12
- EC50 [16]: 0.36 µM
- K(p,uu,brain) [20]: 1.9

SMILES: COc1cc(F)cc2c(N3CCN(c4ccccc4OC4CC4)CC3)c(C#N)nnc12
- EC50 [16]: 0.31 µM
- Activity (Rattus norvegicus [12]): inactive

SMILES: COc1cc(F)cc2c(N3CCN4c5ccccc5OC[C@@H]4C3)c(C#N)nnc12
- EC50 [16]: 0.26 µM
- EC50 [17]: > 30 µM

More lines, now with the values ahead:

- EC50 [16]: > 30 µM
- EC50 [17]: > 30 µM
SMILES: COc1cc(C(F)(F)F)cc2c(N3CCN4c5ccccc5OC[C@@H]4C3)c(C#N)nnc12

- EC50 [16]: 0.82 µM
- Activity (Rattus norvegicus [12]): inactive
SMILES: COc1ccccc1N1CCN(c2c(C#N)nnc3c(OC)cc(F)cc23)CC1

- EC50 [16]: 1.2 µM
- EC50 [17]: > 30 µM
SMILES: COc1cc(F)cc2c(N3CCN4c5ccccc5NC(=O)C4C3)c(C#N)nnc12 (stereo not given)

- EC50 [16]: 0.12 µM
- Activity (Rattus norvegicus [19]): 68%
- EC50 [17]: 0.62 µM
- pEC50 [17]: 6.21
SMILES: COc1cc(F)cc2c(N3CCN4c5ccccc5NCC4C3)c(C#N)nnc12 (stereo not given)

- EC50 [21]: > 10 µM
- EC50 [22]: > 10 µM
- EC50 [18]: > 10 µM
- Kp uu ([20]; read-out: K(p,uu,brain)): 0.9
- EC50 [23]: > 10 µM
- EC50 [24]: > 10 µM
SMILES: [2H]C([2H])([2H])Oc1cc(F)cc2c(N3CCN(c4ccccc4F)CC3)c(C#N)cnc12

- EC50 [16]: 0.34 µM
- EC50 [17]: > 30 µM
SMILES: COc1cc(C(F)(F)F)cc2c(N3CCN4c5ccccc5OC[C@H]4C3)c(C#N)nnc12

- EC50 [16]: 0.26 µM
- Activity (Rattus norvegicus [12]): inactive
SMILES: COc1cc(F)cc2c(N3CCN(c4ccccc4OC(C)C)CC3)c(C#N)nnc12

- EC50 [18]: 0.9 µM
SMILES: COC(=O)c1ccc(-n2c(C)cc(C(=O)CSc3ccc(NC(C)=O)cc3)c2C)cc1
